Test [1] relates to Plasmodium falciparum. Nature of the test: Minimum inhibitory concentration against Plasmodium falciparum. In kind it is functional.
For test [2], the system named is Mycobacterium tuberculosis. Nature of the test: Minimum inhibitory concentration against Mycobacterium tuberculosis. In kind it is functional.
For test [3], the system named is Mycobacterium tuberculosis. Briefly: Minimum inhibitory concentration against Mycobacterium tuberculosis; - = inactive. In kind it is functional, organism-based.

In brackets after ≈: the same amount, converted by molar mass. Activity calls are given as the source filed them. The rule behind the calls is not given here.

One may read the MIC as the least concentration at which growth counts as inhibited.

Regarding `Cc1ccc(-c2cc(-c3ccc(O)cc3)nc(N3CCN(C)CC3)n2)cc1`, the MIC in test [1] stood at 1 µg/mL (≈ 2.77 µM); in test [2], 25 µg/mL (≈ 69.4 µM).
On to `Cc1ccc(-c2cc(-c3ccc(O)cc3)nc(N3CCCCC3)n2)cc1`, for which the MIC in test [1] was found to be 2 µg/mL (≈ 5.79 µM). In addition, the MIC result in test [3] is “inactive”.
Take `COc1ccc(-c2cc(-c3ccc(O)cc3)nc(N)n2)cc1OC`: the minimum inhibitory concentration (MIC) is 10 µg/mL (≈ 30.9 µM) in test [1] and 12.5 µg/mL (≈ 38.7 µM) in test [2].
In test [1], `COc1ccc(-c2cc(-c3ccc(O)cc3)nc(N3CCCCC3)n2)cc1` gave a minimum inhibitory concentration (MIC) of 0.5 µg/mL (≈ 1.38 µM). Also, in test [3], the MIC result is “inactive”.
Consider `Nc1nc(-c2ccccc2)cc(-c2ccc(O)cc2)n1`, for which 10 µg/mL (≈ 38 µM) was the least that counted as inhibitory in test [1] (MIC). Besides, the MIC result in test [3] was “inactive”.
The corresponding values for `COc1ccc(-c2cc(-c3ccc(O)cc3)nc(N3CCN(Cc4ccccc4)CC3)n2)cc1` are 1 µg/mL (≈ 2.21 µM) and “inactive”.
Regarding `Oc1ccc(-c2cc(-c3ccccc3)nc(N3CCCC3)n2)cc1`, the minimal inhibitory concentration (MIC) in test [1] was determined as 2 µg/mL (≈ 6.3 µM); in test [2], 25 µg/mL (≈ 78.8 µM).
As for `COc1ccc(-c2cc(-c3ccc(O)cc3)nc(N3CCCC3)n2)cc1`, 1 µg/mL (≈ 2.88 µM) was the least that counted as inhibitory in test [1] (MIC). Further, the MIC result in test [3] is “inactive”.
Regarding `Oc1ccc(-c2cc(-c3ccccc3)nc(N3CCCCC3)n2)cc1`, the MIC in test [1] came out at 2 µg/mL (≈ 6.03 µM); in test [2], 25 µg/mL (≈ 75.4 µM).
Regarding `Oc1ccc(-c2cc(-c3ccccc3)nc(N3CCN(c4ccccc4)CC3)n2)cc1`, the MIC in test [1] stood at 10 µg/mL (≈ 24.5 µM); in test [2], 25 µg/mL (≈ 61.2 µM).
For `Oc1ccc(-c2cc(-c3ccccc3)nc(N3CCN(Cc4ccccc4)CC3)n2)cc1`, the MIC turned out to be 1 µg/mL (≈ 2.37 µM) in test [1] and 25 µg/mL (≈ 59.2 µM) in test [2].
Regarding `Cc1ccc(-c2cc(-c3ccc(O)cc3)nc(N3CCCC3)n2)cc1`, the MIC in test [1] turned out to be 2 µg/mL (≈ 6.03 µM). Besides, the MIC result in test [3] is “inactive”.
For `COc1ccc(OC)c(-c2cc(-c3ccc(O)cc3)nc(N3CCN(C)CC3)n2)c1`, the figures for the MIC in test [1] and in test [2] were 0.25 µg/mL (≈ 0.615 µM) and 12.5 µg/mL (≈ 30.8 µM), respectively.
Taken in the same sequence, the figures for `COc1ccc(-c2cc(-c3ccc(O)cc3)nc(N3CCCCC3)n2)cc1OC` were 1 µg/mL (≈ 2.55 µM) and 25 µg/mL (≈ 63.9 µM).
For the molecule `COc1ccc(OC)c(-c2cc(-c3ccc(O)cc3)nc(N3CCCC3)n2)c1`, the minimum inhibitory concentration (MIC) turned out to be 1 µg/mL (≈ 2.65 µM) in test [1] and 25 µg/mL (≈ 66.2 µM) in test [2].
`COc1ccc(OC)c(-c2cc(-c3ccc(O)cc3)nc(N3CCCCC3)n2)c1`: the minimal inhibitory concentration (MIC) in test [1] was determined as 1 µg/mL (≈ 2.55 µM); in test [2] it was 25 µg/mL (≈ 63.9 µM).
Take `Cc1ccc(-c2cc(-c3ccc(O)cc3)nc(N3CCN(Cc4ccccc4)CC3)n2)cc1`: the lowest concentration to inhibit growth in test [1] (MIC) was 2 µg/mL (≈ 4.58 µM). Also, the MIC entry in test [3] was “inactive”.
The corresponding values for `Cc1ccc(-c2cc(-c3ccc(O)cc3)nc(N3CCN(c4ccccc4)CC3)n2)cc1` are 10 µg/mL (≈ 23.7 µM) and “inactive”.
Consider `Cc1ccc(-c2cc(-c3ccc(O)cc3)nc(N)n2)cc1`, for which, in test [1], the MIC was determined as 50 µg/mL (≈ 180 µM). Moreover, the MIC entry in test [3] is “inactive”.
`COc1ccc(-c2cc(-c3ccc(O)cc3)nc(N)n2)cc1` displayed an MIC in test [1] of 50 µg/mL (≈ 170 µM). Moreover, in test [3], the MIC result was “inactive”.
For the molecule `COc1ccc(-c2cc(-c3ccc(O)cc3)nc(N3CCN(C)CC3)n2)cc1`, the figures for the MIC in test [1] and in test [2] were 0.5 µg/mL (≈ 1.33 µM) and 25 µg/mL (≈ 66.4 µM), respectively.
With `CN1CCN(c2nc(-c3ccccc3)cc(-c3ccc(O)cc3)n2)CC1`, the MIC in test [1] was determined as 0.5 µg/mL (≈ 1.44 µM); in test [2] it was 25 µg/mL (≈ 72.2 µM).
The corresponding values for `COc1ccc(OC)c(-c2cc(-c3ccc(O)cc3)nc(N3CCN(Cc4ccccc4)CC3)n2)c1` are 0.25 µg/mL (≈ 0.518 µM) and 25 µg/mL (≈ 51.8 µM).
Consider `COc1ccc(-c2cc(-c3ccc(O)cc3)nc(N3CCN(c4ccccc4)CC3)n2)cc1OC`, for which it took 1 µg/mL (≈ 2.13 µM) to inhibit growth in test [1] (MIC). In addition, in test [3], the MIC result was “inactive”.
Taken in the same sequence, the figures for `COc1ccc(-c2cc(-c3ccc(O)cc3)nc(N3CCN(c4ccccc4)CC3)n2)cc1` were 2 µg/mL (≈ 4.56 µM) and “inactive”.
Regarding `COc1ccc(OC)c(-c2cc(-c3ccc(O)cc3)nc(N)n2)c1`, the minimum inhibitory concentration (MIC) amounted to 10 µg/mL (≈ 30.9 µM) in test [1] and 25 µg/mL (≈ 77.3 µM) in test [2].
`COc1ccc(OC)c(-c2cc(-c3ccc(O)cc3)nc(N3CCN(c4ccccc4)CC3)n2)c1` returned an MIC in test [1] of 2 µg/mL (≈ 4.27 µM). Also, in test [3], the MIC entry was “inactive”.
Regarding `COc1ccc(-c2cc(-c3ccc(O)cc3)nc(N3CCCC3)n2)cc1OC`, the MIC in test [1] worked out at 1 µg/mL (≈ 2.65 µM); in test [2], 25 µg/mL (≈ 66.2 µM).
Taken in the same sequence, the figures for `COc1ccc(-c2cc(-c3ccc(O)cc3)nc(N3CCN(C)CC3)n2)cc1OC` were 0.25 µg/mL (≈ 0.615 µM) and 12.5 µg/mL (≈ 30.8 µM).
In test [1], `COc1ccc(-c2cc(-c3ccc(O)cc3)nc(N3CCN(Cc4ccccc4)CC3)n2)cc1OC` gave a minimum inhibitory concentration (MIC) of 0.5 µg/mL (≈ 1.04 µM). Further, in test [3], the MIC result was “inactive”.
